From publication PMC12655351, “Synthesis and Anticancer Activity Evaluation of New 5-((5-Nitrofuran-2-yl)allylidene)-2-thioxo-4-thiazolidinones” (Pharmaceuticals, 2025)

Assays:
HT29 [1] = test: cells; settings: Homo sapiens, HT-29, 48 h; for GI50: HT29, 48 h; for CC50: read-out: LC50, HT29, 48 h
T-47D [2] = settings: 48 h
LOX IMVI [3] = settings: LOX IMVI, 48 h
OVCAR-3 = settings: for TGI: OVCAR-3, 48 h
SK-MEL-5 [4] = test: cells; settings: Homo sapiens, SK-MEL-5, 48 h; for CC50: read-out: LC50, SK-MEL-5, 48 h
CAKI-1 [5] = test: cells; settings: Homo sapiens, CAKI-1, 48 h
RXF 393 = test: NCI-60 SRB screen; settings: RXF 393, 48 h; for GI50: Homo sapiens
MDA-MB-435 = settings: MDA-MB-435, 48 h
SK-MEL-5 [6] = settings: for growth GP: SK-MEL-5, 10 μM, 48 h; for TGI: SK-MEL-5, 48 h
SK-MEL-2 = test: NCI-60 SRB screen; settings: SK-MEL-2, 48 h; for GI50 / CC50: Homo sapiens; for CC50: read-out: LC50, SK-MEL-2, 48 h
SNB-75 = test: NCI-60 SRB screen; settings: SNB-75, 48 h; for GI50 / CC50: Homo sapiens; for CC50: read-out: LC50, SNB-75, 48 h
LOX IMVI [7] = test: cells; settings: Homo sapiens, 48 h; for CC50: read-out: LC50, LOX IMVI, 48 h
SR = settings: 48 h
K-562 = settings: K-562, 48 h
HCT-116 = settings: HCT-116, 48 h
NCI-H460 = test: NCI-60 SRB screen; settings: NCI-H460, 48 h; for GI50 / CC50: Homo sapiens; for CC50: read-out: LC50
ACHN = test: NCI-60 SRB screen; settings: 48 h; for GI50 / CC50: Homo sapiens; for CC50: read-out: LC50, ACHN, 48 h
HT29 [8] = settings: HT29, 48 h
SK-MEL-28 = test: cells; settings: Homo sapiens, SK-MEL-28, 48 h; for CC50: read-out: LC50, SK-MEL-28, 48 h
SN12C = settings: SN12C, 48 h
RPMI-8226 = test: cells; settings: Homo sapiens, RPMI-8226, 48 h; for CC50: read-out: LC50
SW-620 = test: NCI-60 SRB screen; settings: SW-620, 48 h; for GI50: Homo sapiens
A498 = settings: A498, 48 h
SNB-19 = test: NCI-60 SRB screen; settings: for GI50 / CC50: Homo sapiens; for GI50 / CC50 / TGI: SNB-19, 48 h; for CC50: read-out: LC50, SNB-19, 48 h
Prostate Cancer = Prostate Cancer subpanel
NCI/ADR-RES = settings: 48 h
CCRF-CEM = test: cells; settings: Homo sapiens, 48 h
CAKI-1 [9] = settings: for TGI: CAKI-1, 48 h
786-0 = settings: 786-0, 48 h
NCI-H23 = settings: NCI-H23, 48 h
SF-268 = settings: SF-268, 48 h
KM12 = test: NCI-60 SRB screen; settings: KM12, 48 h; for GI50: Homo sapiens
UACC-257 = test: cells; settings: Homo sapiens, UACC-257, 48 h; for CC50: read-out: LC50, UACC-257, 48 h
T-47D [10] = test: cells; settings: Homo sapiens, T47D, 48 h, T-47D

SMILES: CCCCC(C(=O)O)N1C(=O)/C(=C/C=C/c2ccc([N+](=O)[O-])o2)SC1=S (stereo not shown) [6b, 2-((Z)-5-((E)-3-(5-nitrofuran-2-yl)allylidene)-4-oxo-2-thioxothiazolidin-3-yl)hexanoic acid]
- GI50 (HT29 [1]): 1980 nM
- CC50 (HT29 [1]): 6950 nM
- TGI (T-47D [2]): 4030 nM
- TGI (LOX IMVI [3]): 3340 nM
- TGI (OVCAR-3): 5330 nM
- GI50 (SK-MEL-5 [4]): 1450 nM
- CC50 (SK-MEL-5 [4]): 5290 nM
- GI50 (CAKI-1 [5]): 1670 nM
- GI50 (RXF 393): 1690 nM
- TGI (RXF 393): 3200 nM
- TGI (MDA-MB-435): 3950 nM
- growth GP (SK-MEL-5 [6]): -99.30%
- TGI (SK-MEL-5 [6]): 2770 nM
- GI50 (SK-MEL-2): 1700 nM
- CC50 (SK-MEL-2): 6120 nM
- TGI (SK-MEL-2): 3220 nM
- GI50 (SNB-75): 1770 nM
- CC50 (SNB-75): 8060 nM
- TGI (SNB-75): 3770 nM
- GI50 (LOX IMVI [7]): 1760 nM
- CC50 (LOX IMVI [7]): 6370 nM
- TGI (SR): 8660 nM
- TGI (K-562): 10500 nM
- TGI (HCT-116): 4050 nM
- GI50 (NCI-H460): 1840 nM
- CC50 (NCI-H460): 69600 nM
- TGI (NCI-H460): 3610 nM
- TGI (ACHN): 3480 nM
- GI50 (ACHN): 1880 nM
- CC50 (ACHN): 6470 nM
- TGI (HT29 [8]): 3710 nM
- GI50 (SK-MEL-28): 1910 nM
- CC50 (SK-MEL-28): 7290 nM
- TGI (SN12C): 4000 nM
- GI50 (RPMI-8226): 1780 nM
- CC50 (RPMI-8226): > 100000 nM
- GI50 (SW-620): 1800 nM
- TGI (SW-620): 3380 nM
- TGI (A498): 8280 nM
- GI50 (SNB-19): 2100 nM
- CC50 (SNB-19): 13500 nM
- TGI (SNB-19): 4880 nM
- MG_MID TGI (Prostate Cancer): 10800 nM
- TGI (NCI/ADR-RES): 5610 nM
- GI50 (CCRF-CEM): 3100 nM
- TGI (CAKI-1 [9]): 3290 nM
- TGI (786-0): 9300 nM
- TGI (NCI-H23): 3510 nM
- TGI (SF-268): 5240 nM
- GI50 (KM12): 1630 nM
- TGI (KM12): 3240 nM
- GI50 (UACC-257): 1930 nM
- CC50 (UACC-257): 9620 nM
- GI50 (T-47D [10]): 1750 nM

SMILES: CC(C)C(C(=O)O)N1C(=O)/C(=C/C=C/c2ccc([N+](=O)[O-])o2)SC1=S (stereo not shown) [5b, 3-Methyl-2-((Z)-5-((E)-3-(5-nitrofuran-2-yl)allylidene)-4-oxo-2-thioxothiazolidin-3-yl)butanoic acid]
- GI50 (HT29 [1]): 1370 nM
- CC50 (HT29 [1]): 6140 nM
- TGI (T-47D [2]): 3240 nM
- TGI (LOX IMVI [3]): 2490 nM
- growth GP (OVCAR-3; OVCAR-3, 10 μM, 48 h): -95.93%
- TGI (OVCAR-3): 2770 nM
- GI50 (SK-MEL-5 [4]): 1030 nM
- CC50 (SK-MEL-5 [4]): 4740 nM
- GI50 (CAKI-1 [5]): 1170 nM
- GI50 (RXF 393): 1740 nM
- TGI (RXF 393): 3270 nM
- TGI (MDA-MB-435): 2170 nM
- growth GP (SK-MEL-5 [6]): -99.69%
- TGI (SK-MEL-5 [6]): 2210 nM
- GI50 (SK-MEL-2): 1520 nM
- CC50 (SK-MEL-2): 6020 nM
- TGI (SK-MEL-2): 3030 nM
- GI50 (SNB-75): 680 nM
- CC50 (SNB-75): 4890 nM
- TGI (SNB-75): 1980 nM
- GI50 (LOX IMVI [7]): 1160 nM
- CC50 (LOX IMVI [7]): 5330 nM
- TGI (SR): 1890 nM
- TGI (K-562): 2860 nM
- TGI (HCT-116): 1130 nM
- GI50 (NCI-H460): 1760 nM
- CC50 (NCI-H460): 34500 nM
- TGI (NCI-H460): 4930 nM
- growth GP (ACHN; 10 μM): -99.54%
- TGI (ACHN): 2640 nM
- GI50 (ACHN): 1350 nM
- CC50 (ACHN): 5190 nM
- TGI (HT29 [8]): 2900 nM
- GI50 (SK-MEL-28): 1460 nM
- CC50 (SK-MEL-28): 5480 nM
- TGI (SN12C): 2150 nM
- GI50 (RPMI-8226): 350 nM
- CC50 (RPMI-8226): > 100000 nM
- GI50 (SW-620): 590 nM
- TGI (SW-620): 2550 nM
- TGI (A498): 4810 nM
- GI50 (SNB-19): 1640 nM
- CC50 (SNB-19): 5530 nM
- growth GP (SNB-19; SNB-19, 10 μM, 48 h): -97.77%
- TGI (SNB-19): 3010 nM
- MG_MID TGI (Prostate Cancer): 4670 nM
- TGI (NCI/ADR-RES): 4130 nM
- GI50 (CCRF-CEM): 360 nM
- growth GP (CAKI-1 [9]; CAKI-1, 10 μM, 48 h): -97.14%
- TGI (CAKI-1 [9]): 2460 nM
- TGI (786-0): 3700 nM
- TGI (NCI-H23): 3410 nM
- TGI (SF-268): 3570 nM
- GI50 (KM12): 1170 nM
- TGI (KM12): 2570 nM
- GI50 (UACC-257): 1570 nM
- CC50 (UACC-257): 6800 nM
- GI50 (T-47D [10]): 1120 nM
